# Reference: patent US10590140B2, “Tetrahydropyrimidodiazepine and dihydropyridodiazepine compounds for treating pain and pain related conditions” (ESTEVE PHARMACEUTICALS, S.A., priority 2016, dated 2020)
# Target: human α2δ-1 subunit of Cav2.2 calcium channel (Homo sapiens (Human), UniProt P54289)
# Assay: Binding assay to human α2δ-1 subunit of Cav2.2 calcium channel ([3H]-Gabapentin)
# Conditions: binding to α2δ-1, [3H]-Gabapentin; read-out: Ki (nM) α2δ-1
# In short: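 Radioactivity on dried GF/C filters quantified by scintillation after filtration and three cold Tris-HCl (pH 7.4) washes. Incubation ran 60 min at 27° C with [3H]-gabapentin; 10 μM pregabalin gave nonspecific binding.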
# Chain of human α2δ-1 subunit of Cav2.2 calcium channel (P54289 25-1103): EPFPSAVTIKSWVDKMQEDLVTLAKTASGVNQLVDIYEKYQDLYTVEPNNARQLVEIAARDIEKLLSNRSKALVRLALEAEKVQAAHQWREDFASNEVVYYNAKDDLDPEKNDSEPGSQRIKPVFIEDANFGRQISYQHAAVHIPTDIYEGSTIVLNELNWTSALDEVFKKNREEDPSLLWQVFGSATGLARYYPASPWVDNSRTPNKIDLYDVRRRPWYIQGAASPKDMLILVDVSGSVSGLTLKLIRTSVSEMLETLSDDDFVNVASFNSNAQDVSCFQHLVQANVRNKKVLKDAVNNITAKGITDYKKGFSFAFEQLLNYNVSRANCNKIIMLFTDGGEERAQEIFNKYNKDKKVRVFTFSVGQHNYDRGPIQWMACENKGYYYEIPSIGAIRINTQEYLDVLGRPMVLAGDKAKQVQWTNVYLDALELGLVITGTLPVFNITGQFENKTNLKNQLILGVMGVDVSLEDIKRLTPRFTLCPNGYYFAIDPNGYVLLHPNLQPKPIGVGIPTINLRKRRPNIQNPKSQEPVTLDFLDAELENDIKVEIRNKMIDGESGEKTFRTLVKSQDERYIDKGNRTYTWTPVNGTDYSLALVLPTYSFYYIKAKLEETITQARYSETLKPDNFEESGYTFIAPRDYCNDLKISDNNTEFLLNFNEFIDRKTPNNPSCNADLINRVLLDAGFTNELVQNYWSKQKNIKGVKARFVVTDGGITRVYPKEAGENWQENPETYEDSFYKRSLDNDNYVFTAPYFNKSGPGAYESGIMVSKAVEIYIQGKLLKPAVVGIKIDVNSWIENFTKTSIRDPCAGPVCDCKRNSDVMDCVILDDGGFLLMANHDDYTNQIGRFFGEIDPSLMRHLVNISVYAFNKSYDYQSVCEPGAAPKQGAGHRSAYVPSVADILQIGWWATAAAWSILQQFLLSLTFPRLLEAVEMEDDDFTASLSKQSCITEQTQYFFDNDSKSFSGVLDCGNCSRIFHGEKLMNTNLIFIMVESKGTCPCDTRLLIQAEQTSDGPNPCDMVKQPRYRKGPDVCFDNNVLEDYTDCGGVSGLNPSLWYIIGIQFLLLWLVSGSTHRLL
row,Compound,Ki [nM]
1,"CCNc1ncc2c(n1)N(C)CCN(c1ccc(OC(CN(C)C(=O)OC(C)(C)C)c3ccccc3)cc1)C2=O (stereo not drawn) [Example 76, tert-butyl (2-(4-(2-(ethylamino)-9-methyl-5-oxo-5,7,8,9-tetrahydro-6H-pyrimido[4,5-e][1,4]diazepin-6-yl)phenoxy)-2-phenylethyl)(methyl) carbamate]",> 3000
2,"CCNc1ncc2c(n1)N(C)CCN(c1cccc(-n3cc(CN4CCC(c5cccc(O)c5)(N(C)C)CC4)cn3)c1)C2=O [Example 295, 6-(3-(4-((4-(dimethylamino)-4-(3-hydroxyphenyl)piperidin-1-yl)methyl)-1H-pyrazol-1-yl)phenyl)-2-(ethylamino)-9-methyl-6,7,8,9-tetrahydro-5H-pyrimido[4,5-e] [1,4]diazepin-5-one]",100 to 500
3,"CCNc1ncc2c(n1)N(C)CCN(c1cccc(-n3cc(CN4CCc5ccccc5C4)nn3)c1)C2=O [Example 282, 6-(3-(4-((3,4-dihydroisoquinolin-2(1H)-yl)methyl)-1H-1,2,3-triazol-1-yl)phenyl)-2-(ethylamino)-9-methyl-6,7,8,9-tetrahydro-5H-pyrimido[4,5-e] [1,4]diazepin-5-one]",500 to 3000
4,"CCNc1ncc2c(n1)N(C)CCN(c1cccc(OCCCN(Cc3ccccc3)C(=O)OC(C)(C)C)c1)C2=O [Example 89, tert-butyl benzyl (3-(3-(2-(ethylamino)-9-methyl-5-oxo-5,7,8,9-tetrahydro-6H-pyrimido[4,5-e][1,4]diazepin-6-yl)phenoxy)propyl) carbamate]",> 3000
5,"COc1ccc(N2CCN(C)c3nc(SC)ncc3C2=O)cc1 [Example 37, 6-(4-methoxyphenyl)-9-methyl-2-(methylthio)-6,7,8,9-tetrahydro-5H-pyrimido[4,5-e][1,4]diazepin-5-one]",> 3000
6,"CSc1ncc2c(n1)N(C)CCN(c1cccc(COCC(c3ccccc3)N(C)C(=O)OC(C)(C)C)c1)C2=O (stereo not drawn) [Example 18, tert-butyl methyl(2-((3-(9-methyl-2-(methylthio)-5-oxo-5,7,8,9-tetrahydro-6H-pyrimido[4,5-e][1,4]diazepin-6-yl)benzyl)oxy)-1-phenylethyl) carbamate]",> 3000
7,"Cc1nnc(-c2cccc(N3CCN(C)c4nc(N)ncc4C3=O)c2)o1 [Example 101, 2-amino-9-methyl-6-(3-(5-methyl-1,3,4-oxadiazol-2-yl)phenyl)-6,7,8,9-tetrahydro-5H-pyrimido[4,5-e][1,4]diazepin-5-one]",500 to 3000
8,"CCNc1ncc2c(n1)N(C)CCN(Cc1ccccc1OC(CNC)c1ccccc1)C2=O (stereo not drawn) [Example 410, 2-(ethylamino)-9-methyl-6-(2-(2-(methylamino)-1-phenylethoxy)benzyl)-6,7,8,9-tetrahydro-5H-pyrimido[4,5-e][1,4]diazepin-5-one]",> 3000
9,"CNCC[C@H](Oc1ccc(CN2CCN(C)c3nc(OC)ncc3C2=O)c(F)c1)c1cccs1 [Example 401, (S)-6-(2-fluoro-4-(3-(methylamino)-1-(thiophen-2-yl)propoxy)benzyl)-2-methoxy-9-methyl-6,7,8,9-tetrahydro-5H-pyrimido[4,5-e][1,4]diazepin-5-one]",< 100
10,"CN(CC[C@H](Oc1ccc(CN2CCN(C)c3cc(Cl)ncc3C2=O)cc1)c1cccs1)C(=O)OCC[Si](C)(C)C [Example 299, 2-(trimethylsilyl)ethyl (S)-(3-(4-((8-chloro-1-methyl-5-oxo-1,2,3,5-tetrahydro-4H-pyrido[4,3-e][1,4]diazepin-4-yl)methyl)phenoxy)-3-(thiophen-2-yl)propyl)(methyl) carbamate]",> 3000
11,"CCNc1ncc2c(n1)N(C)CCN(c1cccc(CO[C@H](CCN(C)C(=O)OC(C)(C)C)c3ccccc3)c1)C2=O [Example 78, tert-butyl (R)-(3-((3-(2-(ethylamino)-9-methyl-5-oxo-5,7,8,9-tetrahydro-6H-pyrimido[4,5-e][1,4]diazepin-6-yl)benzyl)oxy)-3-phenylpropyl)(methyl) carbamate]",> 3000
12,"CCNc1ncc2c(n1)N(C)CCN(c1cccc(CO[C@@H](CCN(C)C(=O)OC(C)(C)C)c3ccccc3)c1)C2=O [Example 79, tert-butyl (S)-(3-((3-(2-(ethylamino)-9-methyl-5-oxo-5,7,8,9-tetrahydro-6H-pyrimido[4,5-e][1,4]diazepin-6-yl)benzyl)oxy)-3-phenylpropyl)(methyl) carbamate]",> 3000
13,"CSc1ncc2c(n1)N(C)CCN(c1ccccc1OC(CCN(C)C(=O)OC(C)(C)C)c1ccccc1)C2=O (stereo not drawn) [Example 48, tert-butyl methyl(3-(2-(9-methyl-2-(methylthio)-5-oxo-5,7,8,9-tetrahydro-6H-pyrimido [4,5-e][1,4]diazepin-6-yl)phenoxy)-3-phenylpropyl) carbamate]",> 3000
14,"CCNc1ncc2c(n1)N(C)CCN(Cc1ccc(OC)cc1)C2 [Example 68, N-ethyl-6-(4-methoxybenzyl)-9-methyl-6,7,8,9-tetrahydro-5H-pyrimido[4,5-e][1,4]diazepin-2-amine]",> 3000
15,"CCNc1ncc2c(n1)N(C)CCN(c1cccc(COC(CN(C)C(=O)OCC[Si](C)(C)C)c3ccccc3)c1)C2=O (stereo not drawn) [Example 87, 2-(trimethylsilyl)ethyl (2-((3-(2-(ethylamino)-9-methyl-5-oxo-5,7,8,9-tetrahydro-6H-pyrimido[4,5-e][1,4]diazepin-6-yl)benzyl)oxy)-2-phenylethyl)(methyl) carbamate]",> 3000

# Other lines, results leading:
row,Ki [nM],Compound
1,> 3000,"CCNc1ncc2c(n1)N(C)CCN(Cc1cccc(OC(CNC)c3ccccc3)c1)C2=O (stereo not drawn) [Example 200, 2-(ethylamino)-9-methyl-6-(3-(2-(methylamino)-1-phenylethoxy)benzyl)-6,7,8,9-tetrahydro-5H-pyrimido[4,5-e][1,4]diazepin-5-one]"
2,500 to 3000,"CCNc1ncc2c(n1)N(C)CCN(c1cccc(OC(C)CN(C)Cc3ccccc3)c1)C2=O (stereo not drawn) [Example 262, 6-(3-((1-(benzyl(methyl)amino)propan-2-yl)oxy)phenyl)-2-(ethylamino)-9-methyl-6,7,8,9-tetrahydro-5H-pyrimido[4,5-e][1,4]diazepin-5-one]"
3,> 3000,"CCNc1ncc2c(n1)N(C)CCN(c1cccc(COCC(c3ccccc3)N(C)C(=O)OC(C)(C)C)c1)C2=O (stereo not drawn) [Example 86, tert-butyl (2-((3-(2-(ethylamino)-9-methyl-5-oxo-5,7,8,9-tetrahydro-6H-pyrimido[4,5-e][1,4]diazepin-6-yl)benzyl)oxy)-1-phenylethyl)(methyl) carbamate]"
4,> 3000,"CCNc1ncc2c(n1)N(C)CCN(c1cccc(-n3cc(CNC(=O)OC(C)(C)C)nn3)c1)C2=O [Example 117, tert-butyl ((1-(3-(2-(ethylamino)-9-methyl-5-oxo-5,7,8,9-tetrahydro-6H-pyrimido[4,5-e][1,4]diazepin-6-yl)phenyl)-1H-1,2,3-triazol-4-yl)methyl)carbamate]"
5,> 3000,"CCNc1ncc2c(n1)N(C)CCN(c1cccc(C3=CCN(C(=O)OC(C)(C)C)CC3)c1)C2=O [Example 233, tert-Butyl 4-(3-(2-(ethylamino)-9-methyl-5-oxo-5,7,8,9-tetrahydro-6H-pyrimido[4,5-e][1,4]diazepin-6-yl)phenyl)-3,6-dihydropyridine-1(2H)-carboxylate]"
6,100 to 500,"CCNc1ncc2c(n1)N(C)CCN(c1cccc(-n3cc(CNC)nn3)c1)C2=O [Example 180, 2-(ethylamino)-9-methyl-6-(3-(4-((methylamino)methyl)-1H-1,2,3-triazol-1-yl)phenyl)-6,7,8,9-tetrahydro-5H-pyrimido[4,5-e][1,4]diazepin-5-one]"
7,> 3000,"CNCCC(OCc1cccc(N2CCN(C)c3nc(SC)ncc3C2=O)c1)C(C)C (stereo not drawn) [Example 190, 9-methyl-6-(3-(((4-methyl-1-(methylamino)pentan-3-yl)oxy)methyl)phenyl)-2-(methylthio)-6,7,8,9-tetrahydro-5H-pyrimido[4,5-e][1,4]diazepin-5-one]"
8,> 3000,"COc1cccc(N2CCN(C)c3nc(SC)ncc3C2=O)c1 [Example 32, 6-(3-methoxyphenyl)-9-methyl-2-(methylthio)-6,7,8,9-tetrahydro-5H-pyrimido[4,5-e][1,4]diazepin-5-one]"
9,> 3000,"CCNc1ncc2c(n1)N(C)CCN(c1ccc(O)cc1)C2=O [Example 178, 2-(ethylamino)-6-(4-hydroxyphenyl)-9-methyl-6,7,8,9-tetrahydro-5H-pyrimido[4,5-e][1,4]diazepin-5-one]"
10,100 to 500,"CCNc1ncc2c(n1)N(C)CCN(c1cccc(C(=O)OC)c1)C2=O [Example 309, methyl 3-(2-(ethylamino)-9-methyl-5-oxo-5,7,8,9-tetrahydro-6H-pyrimido[4,5-e][1,4]diazepin-6-yl)benzoate]"
11,500 to 3000,"CCNc1ncc2c(n1)N(C)CCN(c1cccc(-n3cc(CN(CC4CC4)CC4CC4)nn3)c1)C2=O [Example 245, 6-(3-(4-((bis (cyclopropylmethyl)amino)methyl)-1H-1,2,3-triazol-1-yl)phenyl)-2-(ethylamino)-9-methyl-6,7,8,9-tetrahydro-5H-pyrimido[4,5-e][1,4]diazepin-5-one]"
12,100 to 500,"CCNc1ncc2c(n1)N(C)CCN(c1cccc(CCNC)c1)C2=O [Example 172, 2-(ethylamino)-9-methyl-6-(3-(2-(methylamino)ethyl)phenyl)-6,7,8,9-tetrahydro-5H-pyrimido[4,5-e][1,4]diazepin-5-one]"
13,> 3000,"CCNc1ncc2c(n1)N(C)CCN(c1cccc(Br)c1)C2=O [Example 112, 6-(3-bromophenyl)-2-(ethylamino)-9-methyl-6,7,8,9-tetrahydro-5H-pyrimido[4,5-e][1,4]diazepin-5-one]"
14,> 3000,"CNCC[C@H](OCc1cccc(N2CCN(C)c3nc(N)ncc3C2=O)c1)c1ccccc1 [Example 332, (S)-2-amino-9-methyl-6-(3-((3-(methylamino)-1-phenylpropoxy)methyl)phenyl)-6,7,8,9-tetrahydro-5H-pyrimido[4,5-e][1,4]diazepin-5-one]"
15,100 to 500,"CCNc1ncc2c(n1)N(C)CCN(Cc1cccc(OC(CCNC)c3ccccc3)c1)C2=O (stereo not drawn) [Example 407, 2-(ethylamino)-9-methyl-6-(3-(3-(methylamino)-1-phenylpropoxy)benzyl)-6,7,8,9-tetrahydro-5H-pyrimido[4,5-e][1,4]diazepin-5-one]"
